The results in this text go back to ChEMBL document CHEMBL1201862, “PubChem BioAssay data set” (2004).

Structures are written as SMILES. Calls of active or inactive are those of the source.

Common to all, as to format: functional
Assay [1] concerns the target ALK tyrosine kinase receptor (Homo sapiens, UniProt Q9UM73).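 Further: ALK tested as one member of a kinase panel screen.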
In assay [2] the target is Tyrosine-protein kinase Lck (Homo sapiens, UniProt P06239).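 Further: lck was assayed as one member of a kinase panel.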
The target in assay [3] is Tyrosine-protein kinase BTK (Homo sapiens, UniProt Q06187).
In assay [4] the target is T1, Serine/threonine-protein kinase TAO1 (Homo sapiens, UniProt Q7L7X3).
T1 sequence (Q7L7X3 whole entry): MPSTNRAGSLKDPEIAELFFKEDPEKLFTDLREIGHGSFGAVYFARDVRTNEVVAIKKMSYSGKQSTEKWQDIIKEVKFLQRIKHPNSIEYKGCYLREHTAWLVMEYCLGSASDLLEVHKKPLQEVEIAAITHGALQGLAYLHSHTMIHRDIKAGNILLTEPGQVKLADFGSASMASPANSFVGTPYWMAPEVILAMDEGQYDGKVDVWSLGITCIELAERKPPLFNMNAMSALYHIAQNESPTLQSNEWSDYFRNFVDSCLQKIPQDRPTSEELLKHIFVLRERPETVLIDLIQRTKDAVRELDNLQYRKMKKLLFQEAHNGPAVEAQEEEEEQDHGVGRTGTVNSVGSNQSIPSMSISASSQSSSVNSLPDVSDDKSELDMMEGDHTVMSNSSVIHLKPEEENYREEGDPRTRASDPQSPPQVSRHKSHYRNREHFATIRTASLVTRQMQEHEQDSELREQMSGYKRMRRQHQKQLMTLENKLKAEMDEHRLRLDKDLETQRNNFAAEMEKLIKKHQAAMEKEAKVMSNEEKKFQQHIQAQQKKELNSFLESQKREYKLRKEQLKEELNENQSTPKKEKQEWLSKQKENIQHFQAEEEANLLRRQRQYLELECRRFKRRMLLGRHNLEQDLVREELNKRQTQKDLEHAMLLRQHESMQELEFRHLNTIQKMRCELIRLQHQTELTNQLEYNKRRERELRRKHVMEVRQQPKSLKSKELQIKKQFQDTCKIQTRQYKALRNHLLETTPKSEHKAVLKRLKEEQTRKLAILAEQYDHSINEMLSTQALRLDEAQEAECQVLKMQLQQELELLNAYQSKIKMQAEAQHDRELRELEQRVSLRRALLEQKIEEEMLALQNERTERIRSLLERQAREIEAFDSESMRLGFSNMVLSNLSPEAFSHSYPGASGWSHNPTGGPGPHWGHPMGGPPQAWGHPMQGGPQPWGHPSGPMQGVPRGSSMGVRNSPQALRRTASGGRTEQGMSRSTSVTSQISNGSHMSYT

The target in the next assay is Focal adhesion kinase 1 (Homo sapiens, UniProt Q05397).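 Further: measured as one member of a kinome panel.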
Assay [5] has as its target Tyrosine-protein kinase Fyn (Homo sapiens, UniProt P06241).
For assay [6], the target named is Calcium/calmodulin-dependent protein kinase type II subunit alpha (Homo sapiens, UniProt Q9UQM7). Kind of assay: Navigating the Kinome. Panel member name: CAMK2A.
Assay [7] addresses Mitogen-activated protein kinase 14 (Homo sapiens, UniProt Q16539).
The target in assay [8] is T2, Apoptotic protease-activating factor 1 (Homo sapiens, UniProt O14727).
T2 sequence (O14727 whole entry): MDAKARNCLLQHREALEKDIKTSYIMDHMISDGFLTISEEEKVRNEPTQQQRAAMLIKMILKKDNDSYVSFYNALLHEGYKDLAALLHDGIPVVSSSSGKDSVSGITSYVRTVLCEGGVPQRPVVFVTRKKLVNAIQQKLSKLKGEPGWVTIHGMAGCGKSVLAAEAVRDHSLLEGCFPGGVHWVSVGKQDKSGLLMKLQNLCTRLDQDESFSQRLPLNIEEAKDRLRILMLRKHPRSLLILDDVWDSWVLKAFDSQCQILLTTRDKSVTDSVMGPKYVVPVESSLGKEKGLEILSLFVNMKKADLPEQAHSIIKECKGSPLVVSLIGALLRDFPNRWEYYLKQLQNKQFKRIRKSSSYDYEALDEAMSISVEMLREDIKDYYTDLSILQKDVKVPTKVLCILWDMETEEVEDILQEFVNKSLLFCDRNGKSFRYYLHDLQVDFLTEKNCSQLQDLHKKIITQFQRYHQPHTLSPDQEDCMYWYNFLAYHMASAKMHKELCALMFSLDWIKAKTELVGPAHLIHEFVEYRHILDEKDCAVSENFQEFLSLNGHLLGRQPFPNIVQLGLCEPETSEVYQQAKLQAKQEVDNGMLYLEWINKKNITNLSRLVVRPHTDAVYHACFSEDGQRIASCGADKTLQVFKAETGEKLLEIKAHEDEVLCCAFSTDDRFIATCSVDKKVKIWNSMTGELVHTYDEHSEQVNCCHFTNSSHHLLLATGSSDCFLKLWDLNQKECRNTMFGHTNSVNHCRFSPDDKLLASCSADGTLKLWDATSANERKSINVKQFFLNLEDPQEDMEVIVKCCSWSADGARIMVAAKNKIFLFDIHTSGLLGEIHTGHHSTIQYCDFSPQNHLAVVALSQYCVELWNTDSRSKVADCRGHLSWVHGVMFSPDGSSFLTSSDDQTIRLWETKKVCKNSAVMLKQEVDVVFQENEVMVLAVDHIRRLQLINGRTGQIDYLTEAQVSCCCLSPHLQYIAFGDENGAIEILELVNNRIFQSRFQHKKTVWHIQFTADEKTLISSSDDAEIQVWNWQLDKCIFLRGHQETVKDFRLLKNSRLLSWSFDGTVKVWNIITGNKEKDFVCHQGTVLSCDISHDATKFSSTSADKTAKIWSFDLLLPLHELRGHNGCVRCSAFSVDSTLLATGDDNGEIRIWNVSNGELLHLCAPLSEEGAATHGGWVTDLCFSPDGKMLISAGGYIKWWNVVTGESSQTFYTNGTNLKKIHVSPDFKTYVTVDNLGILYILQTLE
Briefly: SAR analysis of small molecule inhibitors of Apaf-1 in a Fluorescent assay. The following applies: read-out: IC50_Mean.

Chain of Mitogen-activated protein kinase 14 (Q16539 whole entry): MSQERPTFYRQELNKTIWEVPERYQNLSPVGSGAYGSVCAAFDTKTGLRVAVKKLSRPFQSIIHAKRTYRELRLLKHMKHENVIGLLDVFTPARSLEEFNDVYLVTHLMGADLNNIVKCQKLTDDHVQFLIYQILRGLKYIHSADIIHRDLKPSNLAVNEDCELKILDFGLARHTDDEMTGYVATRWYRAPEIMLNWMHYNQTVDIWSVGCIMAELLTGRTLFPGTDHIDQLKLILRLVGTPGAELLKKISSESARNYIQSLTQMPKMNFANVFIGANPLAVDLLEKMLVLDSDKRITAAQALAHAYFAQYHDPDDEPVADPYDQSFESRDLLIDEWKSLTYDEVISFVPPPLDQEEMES
Chain of Calcium/calmodulin-dependent protein kinase type II subunit alpha (Q9UQM7 whole entry): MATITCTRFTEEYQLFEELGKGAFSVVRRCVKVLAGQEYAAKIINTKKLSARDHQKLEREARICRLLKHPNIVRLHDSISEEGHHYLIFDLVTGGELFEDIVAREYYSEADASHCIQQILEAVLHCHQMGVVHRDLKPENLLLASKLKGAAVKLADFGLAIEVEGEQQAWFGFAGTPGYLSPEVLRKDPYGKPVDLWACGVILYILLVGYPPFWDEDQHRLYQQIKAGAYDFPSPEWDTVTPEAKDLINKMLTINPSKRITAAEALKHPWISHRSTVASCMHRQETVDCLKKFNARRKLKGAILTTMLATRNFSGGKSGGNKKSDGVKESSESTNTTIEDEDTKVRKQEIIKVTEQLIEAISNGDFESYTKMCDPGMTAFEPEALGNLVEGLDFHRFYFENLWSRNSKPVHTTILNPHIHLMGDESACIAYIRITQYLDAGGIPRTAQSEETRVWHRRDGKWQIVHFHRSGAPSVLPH
Chain of Tyrosine-protein kinase BTK (Q06187 whole entry): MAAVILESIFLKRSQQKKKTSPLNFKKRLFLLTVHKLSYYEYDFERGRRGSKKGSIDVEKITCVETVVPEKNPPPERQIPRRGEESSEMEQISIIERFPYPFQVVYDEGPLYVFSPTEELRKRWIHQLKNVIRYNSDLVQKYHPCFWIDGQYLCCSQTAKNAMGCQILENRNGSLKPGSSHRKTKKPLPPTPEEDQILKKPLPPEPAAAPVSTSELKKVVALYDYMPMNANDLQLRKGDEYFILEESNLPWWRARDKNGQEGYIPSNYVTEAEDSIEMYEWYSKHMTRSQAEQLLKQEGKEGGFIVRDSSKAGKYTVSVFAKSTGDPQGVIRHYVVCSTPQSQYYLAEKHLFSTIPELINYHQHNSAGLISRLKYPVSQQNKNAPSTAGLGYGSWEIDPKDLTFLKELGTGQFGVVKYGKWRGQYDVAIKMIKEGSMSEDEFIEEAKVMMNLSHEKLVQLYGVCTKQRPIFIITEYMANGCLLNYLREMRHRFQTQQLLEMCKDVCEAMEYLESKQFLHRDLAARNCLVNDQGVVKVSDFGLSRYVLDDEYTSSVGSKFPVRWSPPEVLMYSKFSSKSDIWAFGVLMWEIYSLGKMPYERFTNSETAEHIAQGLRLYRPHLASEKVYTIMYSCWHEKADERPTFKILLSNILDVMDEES
Chain of Focal adhesion kinase 1 (Q05397 whole entry): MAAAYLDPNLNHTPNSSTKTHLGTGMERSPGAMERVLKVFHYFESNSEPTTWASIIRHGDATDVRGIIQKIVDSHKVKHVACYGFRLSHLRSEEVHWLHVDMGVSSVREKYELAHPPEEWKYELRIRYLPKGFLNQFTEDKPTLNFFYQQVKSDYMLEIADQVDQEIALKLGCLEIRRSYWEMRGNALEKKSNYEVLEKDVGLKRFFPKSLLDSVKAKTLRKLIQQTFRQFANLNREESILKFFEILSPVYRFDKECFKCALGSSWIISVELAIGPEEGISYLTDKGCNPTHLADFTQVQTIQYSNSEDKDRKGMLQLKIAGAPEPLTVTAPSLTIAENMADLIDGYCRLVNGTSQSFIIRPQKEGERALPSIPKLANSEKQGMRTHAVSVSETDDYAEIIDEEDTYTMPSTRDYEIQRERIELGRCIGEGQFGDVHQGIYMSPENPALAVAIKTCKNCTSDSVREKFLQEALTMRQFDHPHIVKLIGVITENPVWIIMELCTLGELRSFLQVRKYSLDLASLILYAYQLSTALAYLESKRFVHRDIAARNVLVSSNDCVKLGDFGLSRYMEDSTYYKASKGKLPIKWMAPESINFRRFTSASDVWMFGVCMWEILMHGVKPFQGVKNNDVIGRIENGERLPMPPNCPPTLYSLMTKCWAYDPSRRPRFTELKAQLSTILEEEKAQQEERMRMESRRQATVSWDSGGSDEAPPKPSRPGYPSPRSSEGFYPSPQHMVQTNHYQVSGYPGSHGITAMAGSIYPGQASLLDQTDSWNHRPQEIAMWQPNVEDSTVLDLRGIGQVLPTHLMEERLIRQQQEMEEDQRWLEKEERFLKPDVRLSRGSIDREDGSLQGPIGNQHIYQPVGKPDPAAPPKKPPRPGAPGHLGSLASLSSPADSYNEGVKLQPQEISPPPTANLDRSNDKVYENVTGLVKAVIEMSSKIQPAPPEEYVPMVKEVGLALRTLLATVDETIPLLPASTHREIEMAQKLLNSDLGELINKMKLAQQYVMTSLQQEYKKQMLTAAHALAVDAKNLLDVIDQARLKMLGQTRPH
Chain of ALK tyrosine kinase receptor (Q9UM73 whole entry): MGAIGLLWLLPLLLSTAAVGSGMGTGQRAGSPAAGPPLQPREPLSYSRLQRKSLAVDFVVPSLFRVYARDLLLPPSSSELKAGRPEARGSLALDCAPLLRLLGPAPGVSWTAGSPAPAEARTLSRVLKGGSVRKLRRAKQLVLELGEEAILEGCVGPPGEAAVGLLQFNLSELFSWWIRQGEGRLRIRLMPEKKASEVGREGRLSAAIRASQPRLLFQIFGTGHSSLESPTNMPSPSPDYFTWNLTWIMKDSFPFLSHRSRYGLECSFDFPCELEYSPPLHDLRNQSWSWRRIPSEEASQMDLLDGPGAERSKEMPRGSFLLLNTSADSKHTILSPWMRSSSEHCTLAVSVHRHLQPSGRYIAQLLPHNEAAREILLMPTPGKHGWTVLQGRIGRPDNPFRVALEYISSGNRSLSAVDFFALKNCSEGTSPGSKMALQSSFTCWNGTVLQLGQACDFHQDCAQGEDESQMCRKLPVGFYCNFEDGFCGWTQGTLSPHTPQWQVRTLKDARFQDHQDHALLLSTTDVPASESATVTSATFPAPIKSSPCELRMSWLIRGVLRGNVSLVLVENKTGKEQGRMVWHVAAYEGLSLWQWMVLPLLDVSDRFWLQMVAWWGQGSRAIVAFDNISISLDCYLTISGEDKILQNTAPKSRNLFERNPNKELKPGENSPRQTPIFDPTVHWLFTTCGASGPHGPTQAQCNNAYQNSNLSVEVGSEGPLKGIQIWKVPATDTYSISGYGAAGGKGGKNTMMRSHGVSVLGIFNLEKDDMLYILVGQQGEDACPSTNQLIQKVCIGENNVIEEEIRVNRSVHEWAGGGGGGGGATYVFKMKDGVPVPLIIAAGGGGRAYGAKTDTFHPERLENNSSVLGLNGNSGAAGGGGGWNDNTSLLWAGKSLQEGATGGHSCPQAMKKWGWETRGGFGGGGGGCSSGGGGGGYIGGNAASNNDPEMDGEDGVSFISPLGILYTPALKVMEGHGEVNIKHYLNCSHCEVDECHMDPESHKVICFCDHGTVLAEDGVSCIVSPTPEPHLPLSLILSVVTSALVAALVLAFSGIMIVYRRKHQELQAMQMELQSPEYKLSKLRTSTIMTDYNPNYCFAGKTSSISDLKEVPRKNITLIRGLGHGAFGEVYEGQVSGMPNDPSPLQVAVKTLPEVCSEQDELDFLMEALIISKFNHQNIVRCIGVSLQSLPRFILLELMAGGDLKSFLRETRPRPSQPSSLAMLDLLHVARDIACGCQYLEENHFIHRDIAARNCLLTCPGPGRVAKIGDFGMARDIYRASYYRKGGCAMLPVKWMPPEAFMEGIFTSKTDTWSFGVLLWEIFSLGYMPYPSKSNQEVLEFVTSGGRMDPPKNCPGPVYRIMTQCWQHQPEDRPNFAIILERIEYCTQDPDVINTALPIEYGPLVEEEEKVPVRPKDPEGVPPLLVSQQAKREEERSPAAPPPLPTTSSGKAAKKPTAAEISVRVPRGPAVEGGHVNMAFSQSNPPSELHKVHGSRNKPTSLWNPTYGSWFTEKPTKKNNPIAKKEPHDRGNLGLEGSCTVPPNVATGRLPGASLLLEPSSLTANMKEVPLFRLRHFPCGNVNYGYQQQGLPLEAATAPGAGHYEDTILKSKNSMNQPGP
Chain of Tyrosine-protein kinase Fyn (P06241 whole entry): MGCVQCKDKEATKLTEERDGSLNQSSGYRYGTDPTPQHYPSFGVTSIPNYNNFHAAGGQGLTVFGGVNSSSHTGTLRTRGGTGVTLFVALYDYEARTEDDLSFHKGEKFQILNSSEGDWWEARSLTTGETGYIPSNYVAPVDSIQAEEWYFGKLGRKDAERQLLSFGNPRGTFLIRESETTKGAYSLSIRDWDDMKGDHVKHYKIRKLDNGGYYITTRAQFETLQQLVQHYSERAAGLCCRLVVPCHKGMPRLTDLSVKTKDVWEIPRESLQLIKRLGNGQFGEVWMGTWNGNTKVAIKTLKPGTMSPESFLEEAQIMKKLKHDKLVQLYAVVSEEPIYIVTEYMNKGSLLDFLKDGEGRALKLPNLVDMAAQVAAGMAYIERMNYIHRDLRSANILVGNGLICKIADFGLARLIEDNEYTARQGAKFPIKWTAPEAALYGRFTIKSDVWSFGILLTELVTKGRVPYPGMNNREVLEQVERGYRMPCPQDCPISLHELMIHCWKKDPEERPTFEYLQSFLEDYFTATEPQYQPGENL

A word on the Ki: it is the dissociation constant of the complex between target and ligand, obtained from inhibition or displacement. For the compound `CC(C)CC(CO)NC(=O)c1cccc(-n2nc(C(C)(C)C)cc2NC(=O)Nc2cccc3ccccc23)c1` (centres undefined), the Ki (in assay [1]; in assay [2]; in assay [3]; in assay [4]; at Focal adhesion kinase 1; in [5]) was > 6.31 µM (inactive) in each case. For the same compound, the Ki was > 7.94 µM (inactive) in assay [6] and 631 nM (active) in assay [7].

With `Cn1cc(C(CC(=O)c2ccc(C3CCCCC3)cc2)C(=O)O)c2ccccc21` (centres undefined), the IC50 in assay [8] is 69.6 µM (active).
